The record followed here is ChEMBL document CHEMBL1121748, “Antimycotic imidazoles. 5. Synthesis and antimycotic properties of 1-[[2-aryl-4-(arylalkyl)-1,3-dioxolan-2-yl]methyl]-1H-imidazoles” (1981).

In test [1] the test system is Microsporum canis. In words: Antifungal activity against Microsporum canis. The test is classed as functional.
Test [2] deals with Saprolegnia. In words: Antifungal activity against Saprolegnia species. The test is classed as functional.
Test [3] has as its system Cryptococcus neoformans. The test is described as follows: Antifungal activity against Cryptococcus neoformans. The test is classed as functional.
Test [4] relates to Candida albicans. The test is described as follows: Antifungal activity against Candida albicans. It is filed as functional.
In test [5] the test system is Aspergillus fumigatus. In words: Antifungal activity against Aspergillus fumigatus. It is filed as functional.
The subject of test [6] is Trichophyton rubrum. In words: Antifungal activity against Trichophyton rubrum. The test is classed as functional.
Test [7] has as its system Staphylococcus haemolyticus. In words: Antibacterial against Staphylococcus hemolyticus. It is filed as functional.
Test [8] relates to Phialophora verrucosa. The test is described as follows: Antifungal activity against Phialophora verrucosa. The test is classed as functional.
Test [9] deals with Sporothrix schenckii. The test is described as follows: Antifungal activity against Sporothrix schenck ii. It is filed as functional.
In test [10] the test system is Mucor. In words: Antifungal activity against Mucor species. It is filed as functional.
For test [11], the system named is Candida tropicalis. The test is described as follows: Antifungal activity against Candida tropicalis. It is filed as functional.
The subject of test [12] is Streptococcus pyogenes. The test is described as follows: Antibacterial activity against Streptococcus pyogenes. It is filed as functional.
Test [13] deals with Erysipelothrix rhusiopathiae. The test is described as follows: Antibacterial activity against Erysipelothrix insidiosa. It is filed as functional.
Test [14] deals with Trichophyton benhamiae. The test is described as follows: Antifungal activity against Trichophyton mentagrophytes. It is filed as functional, trychophyton mentagrophytes.
The nature of test [15]: Ratio of animals cured to that of animals infected, tested in vivo for antifungal activity against vaginal candidosis in rat; 0/2. Further: test concentration or dose not given here.
Test [16] can be described thus: Ratio of animals cured to that of animals infected, tested in vivo for antifungal activity against cutaneous candidosis in guinea pig; 0/2. Further: test concentration or dose not given here. It is filed as functional.

Where only a bound is given, the exact number is not on record here.

As for `Clc1ccc(C2(Cn3ccnc3)OCC(c3ccccc3)O2)cc1` (stereo not given), the Inhibition in [1] is 10 µg/mL; in [2], 100 µg/mL; in test [3], 10 µg/mL; in test [4] it was 100 µg/mL; in test [5], 10 µg/mL; in test [6], under 1 µg/mL. For the same molecule, the Inhibition in test [7] was 10 µg/mL; in [8], 100 µg/mL; in test [9], 10 µg/mL; in [10], 100 µg/mL; in [11], over 100 µg/mL; in test [12], under 1 µg/mL. Also, the Inhibition in [13] is 1 µg/mL; in [14], under 1 µg/mL.

As to `Clc1ccc(C2(Cn3ccnc3)OCC(Cc3ccc(Br)cc3)O2)c(Cl)c1` (stereo not given), the Inhibition in test [1] is under 1 µg/mL; in test [2], 100 µg/mL; in test [3], under 1 µg/mL; in [4], 10 µg/mL; in test [5] it was 10 µg/mL; in test [6], under 1 µg/mL. Also, the Inhibition in test [7] is 10 µg/mL; in test [8] it was 100 µg/mL; in test [9] it was 10 µg/mL; in test [10], under 1 µg/mL; in [11] it was over 100 µg/mL; in [12], under 1 µg/mL. In addition, the Inhibition in [13] and in [14] was under 1 µg/mL each time. Also, in [15], the Ratio is 0.

Turning to `Cc1ccc(C2(Cn3ccnc3)OCC(c3ccc(Cl)cc3Cl)O2)cc1` (stereo not given), the Inhibition in test [1] is 10 µg/mL; in [2] it was 100 µg/mL; in test [3], 10 µg/mL; in test [4] it was over 100 µg/mL; in test [5], 100 µg/mL; in test [6], under 1 µg/mL. Moreover, the Inhibition is 1 µg/mL in test [7]; 100 µg/mL in test [8]; 10 µg/mL in test [9]; 100 µg/mL in [10]; over 100 µg/mL in test [11]; under 1 µg/mL in test [12]. Also, the Inhibition in test [13] and in [14] was under 1 µg/mL in each case. For the same molecule, in test [16], the Ratio is 0.

As for `Clc1ccccc1C1(Cn2ccnc2)OCC(c2ccc(Br)cc2)O1` (stereo not given), the Inhibition in [1] was under 1 µg/mL; in [2] it was 10 µg/mL; in test [3] it was under 1 µg/mL; in [4], 100 µg/mL; in [5], under 1 µg/mL; in [6], under 1 µg/mL. The Inhibition in [7], in test [8], in test [9], in test [10], in [11] and in test [12] was 10 µg/mL throughout. The results for the Inhibition in test [13] and in test [14] were 10 µg/mL and under 1 µg/mL, respectively.

Take `Clc1ccc(C2COC(Cn3ccnc3)(c3ccccc3Cl)O2)c(Cl)c1` (stereo not given): the Inhibition in test [1] was under 1 µg/mL; in [2] it was 10 µg/mL; in test [3] it was under 1 µg/mL; in test [4], over 100 µg/mL; in [5], under 1 µg/mL; in [6], under 1 µg/mL. In addition, the Inhibition in [7] is 10 µg/mL; in test [8] it was 100 µg/mL; in test [9] it was under 1 µg/mL; in test [10], over 100 µg/mL; in [11], over 100 µg/mL; in test [12], under 1 µg/mL. In addition, the Inhibition was 1 µg/mL in test [13] and under 1 µg/mL in [14]. For the same molecule, the Ratio in test [15] is 0.

Regarding `Cc1ccc(C2(Cn3ccnc3)OCC(c3ccc(Cl)cc3)O2)cc1` (stereo not given), the Inhibition in [1] was under 1 µg/mL; in test [2] it was 100 µg/mL; in test [3] it was under 1 µg/mL; in test [4], over 100 µg/mL; in [5], under 1 µg/mL; in test [6], under 1 µg/mL. In addition, the Inhibition in [7] was 10 µg/mL; in [8] it was 100 µg/mL; in test [9] it was 10 µg/mL; in [10], 10 µg/mL; in test [11] it was 100 µg/mL; in [12] it was under 1 µg/mL. For the same molecule, the Inhibition in [13] and in test [14] was under 1 µg/mL each time. Besides, in test [16], the Ratio turned out to be 0.

On to `Clc1ccc(C2(Cn3ccnc3)OCC(c3ccc(Cl)cc3Cl)O2)cc1` (stereo not given), for which the Inhibition is 10 µg/mL in [1]; 100 µg/mL in test [2]; 10 µg/mL in test [3]; 100 µg/mL in test [4]; 100 µg/mL in [5]; under 1 µg/mL in [6]. Also, the Inhibition in test [7] was 10 µg/mL; in test [8], 100 µg/mL; in [9] it was 10 µg/mL; in [10] it was 100 µg/mL; in test [11], over 100 µg/mL; in test [12], under 1 µg/mL. Further, the Inhibition in [13] was 1 µg/mL; in [14], under 1 µg/mL. Moreover, the Ratio in [15] is listed as 0.

As to `Brc1ccc(C2COC(Cn3ccnc3)(c3ccccc3)O2)cc1` (stereo not given), the Inhibition is under 1 µg/mL in test [1]; 100 µg/mL in [2]; 10 µg/mL in test [3]; 100 µg/mL in test [4]; 10 µg/mL in test [5]; under 1 µg/mL in test [6]. Besides, the Inhibition in test [7] was over 100 µg/mL; in test [8] it was 100 µg/mL; in test [9], 10 µg/mL; in test [10], 100 µg/mL; in [11], over 100 µg/mL; in test [12], under 1 µg/mL. The Inhibition in test [13] is 1 µg/mL; in test [14] it was under 1 µg/mL.

Take `Clc1ccc(C2COC(Cn3ccnc3)(c3ccccc3Cl)O2)cc1` (stereo not given): the Inhibition in test [1] is under 1 µg/mL; in test [2], 10 µg/mL; in test [3], 100 µg/mL; in test [4], 100 µg/mL; in test [5], under 1 µg/mL; in [6] it was under 1 µg/mL. The Inhibition in test [7] was 100 µg/mL; in test [8], 100 µg/mL; in test [9], 10 µg/mL; in [10], 100 µg/mL; in [11], 100 µg/mL; in test [12] it was under 1 µg/mL. Besides, the Inhibition in test [13] and in test [14] was under 1 µg/mL in each case.

Take `Clc1ccc(C2(Cn3ccnc3)OCC(c3ccccc3Cl)O2)c(Cl)c1` (stereo not given): the Inhibition in [1] is 10 µg/mL; in [2] it was 100 µg/mL; in test [3], under 1 µg/mL; in test [4], 100 µg/mL; in [5], 100 µg/mL; in test [6], under 1 µg/mL. Also, the Inhibition in test [7] was 1 µg/mL; in test [8], 100 µg/mL; in test [9], 10 µg/mL; in test [10] it was 100 µg/mL; in test [11], 100 µg/mL; in test [12], under 1 µg/mL. Also, the Inhibition in [13] and in test [14] was under 1 µg/mL each time.

With `COc1ccc(C2(Cn3ccnc3)OCC(c3ccc(Cl)cc3)O2)cc1` (stereo not given), the Inhibition was under 1 µg/mL in test [1]; 100 µg/mL in test [2]; over 100 µg/mL in [3]; over 100 µg/mL in test [4]; under 1 µg/mL in [5]; 10 µg/mL in test [6]. The Inhibition in [7] was 100 µg/mL; in test [8] it was 100 µg/mL; in test [9] it was 10 µg/mL; in test [10] it was 100 µg/mL; in [11], over 100 µg/mL; in test [12], 10 µg/mL. For the same molecule, the Inhibition in test [13] is 10 µg/mL; in test [14], under 1 µg/mL. In test [16], the Ratio is 0.

As for `Clc1ccc(C2COC(Cn3ccnc3)(c3ccc(Br)cc3)O2)c(Cl)c1` (stereo not given), the Inhibition in test [1] is 10 µg/mL; in test [2] it was over 100 µg/mL; in test [3] it was over 100 µg/mL; in [4], over 100 µg/mL; in [5], over 100 µg/mL; in test [6] it was under 1 µg/mL. The Inhibition in test [7] is 100 µg/mL; in test [8], over 100 µg/mL; in test [9], 100 µg/mL; in test [10] it was 100 µg/mL; in [11] it was over 100 µg/mL; in [12], 1 µg/mL. In addition, the Inhibition in [13] was determined as 1 µg/mL; in [14], 10 µg/mL. For the same molecule, the Ratio in test [16] is listed as 0.
